Data taken from ChEMBL document CHEMBL5579887, “Structure-Activity Relationship Studies of Substituted 2-Phenyl-1,2,4-triazine-3,5(2H,4H)-dione Analogues: Development of Potent eEF2K Degraders against Triple-Negative Breast Cancer” (J Med Chem, 2024).
In brackets after ≈: the same amount, converted by molar mass.

How the values were obtained:
MDA-MB-231 [1] = test: cells; settings: Homo sapiens, MDA-MB-231, 72 h, read-out: INH
Description: Antitumor activity against human MDA-MB-231 cells assessed as inhibition of cell viability by measuring inhibition rate at 20 uM measured after 72 hrs by CCK-8 assay relative to control

[2] = Kinetic solubility of the compound in PBS buffer at pH 7.4 measured by HPLC analysis
MDA-MB-231 [3] = test: cells; settings: Homo sapiens, MDA-MB-231, 72 h, read-out: INH; remark: listed apart in the source
Description: Antitumor activity against human MDA-MB-231 cells assessed as inhibition of cell viability by measuring inhibition rate at 1 uM measured after 72 hrs by CCK-8 assay relative to control

MDA-MB-231 [4] = test: cells; settings: Homo sapiens, MDA-MB-231, 72 h
Description: Antitumor activity against human MDA-MB-231 cells assessed as inhibition of cell viability by measuring inhibition rate measured after 72 hrs by CCK-8 assay relative to control

SMILES	inhibition at 20 µM (MDA-MB-231 [1]) [%]	solubility kinetic [2] [µM]	inhibition at 1 µM (MDA-MB-231 [3]) [%]	IC50 (MDA-MB-231 [4]) [µM]
CCn1c(=O)c2cc(C(N)=O)c(N)nc2n(C2CC2)c1=O	4.67			
Cc1ccc(-n2nc(C(=O)Nc3ccc(CN4CCOCC4)cc3)c(=O)n(Cc3ccccc3)c2=O)cc1C	52.8	15 (≈ 7.88 µg/mL)		
COc1cccc(Cn2c(=O)c(C#N)nn(-c3ccc(C)c(C)c3)c2=O)c1	97.4	103 (≈ 37.3 µg/mL)	48.9	
Cc1ccc(-n2nc(C#N)c(=O)n(Cc3ccncc3)c2=O)cc1C	0.27			
Cc1ccc(-n2nc(C(=O)N3CCC[C@@H](CNC(=O)OC(C)(C)C)C3)c(=O)n(Cc3cccc(F)c3)c2=O)cc1C	99.3	57 (≈ 32.2 µg/mL)	92.1	0.232
Cc1ccc(-n2nc(C#N)c(=O)n(Cc3ccccc3F)c2=O)cc1C	93.5		-3.59	
Cc1ccc(-n2nc(C#N)c(=O)n(Cc3cccc(C(F)(F)F)c3)c2=O)cc1C	92.9	67 (≈ 26.8 µg/mL)	19.3	
Cc1ccc(-n2nc(C(=O)N3CCC(C(=O)OC(C)(C)C)CC3)c(=O)n(Cc3cccc(F)c3)c2=O)cc1C	90.4	19 (≈ 10.2 µg/mL)	90.7	0.279
Cc1ccc(-n2nc(C#N)c(=O)n(Cc3cccnc3)c2=O)cc1C	34.8	106 (≈ 35.3 µg/mL)		
Cc1ccc(-n2nc(C(=O)N3CCC[C@H](CNC(=O)OC(C)(C)C)C3)c(=O)n(Cc3cccc(F)c3)c2=O)cc1C	99.9	24 (≈ 13.6 µg/mL)	92.2	0.261
Cc1ccc(-n2nc(C(=O)N3CCNCC3)c(=O)n(Cc3ccccc3)c2=O)cc1C	96.7			> 1
Cc1ccc(-n2nc(C(=O)N3CCCCC3)c(=O)n(Cc3ccccc3F)c2=O)cc1C	99.2	20 (≈ 8.73 µg/mL)	93.5	0.0941
Cc1ccc(-n2nc(C(=O)N3CCC[C@@H](NC(=O)OC(C)(C)C)C3)c(=O)n(Cc3cccc(F)c3)c2=O)cc1C	98.3	129 (≈ 71.2 µg/mL)	74.1	0.478
Cc1ccc(-n2nc(C(=O)N3CCCCC3)c(=O)n(Cc3ccc(F)cc3)c2=O)cc1C	94.1	96 (≈ 41.9 µg/mL)	63.8	0.771
Cc1ccc(-n2nc(C(=O)N3CCOCC3)c(=O)n(Cc3ccccc3)c2=O)cc1C	95.8	44 (≈ 18.5 µg/mL)	70.1	0.659
O=C(/C=C/c1cccc(C(F)(F)F)c1)c1cc2ccccc2oc1=O				~1
Cc1ccc(-n2nc(C(=O)NCCN3CCOCC3)c(=O)n(Cc3ccccc3)c2=O)cc1C	60.9			
Cc1ccc(-n2nc(C#N)c(=O)n(Cc3ccccc3)c2=O)cc1C	96.4		58.1	
Cc1ccc(-n2nc(C(=O)N3CCCN(C(=O)OC(C)(C)C)C3)c(=O)n(Cc3cccc(F)c3)c2=O)cc1C	96	54 (≈ 29 µg/mL)	39.9	
Cc1ccc(-n2nc(C(=O)N3CCC(F)(F)CC3)c(=O)n(Cc3cccc(F)c3)c2=O)cc1C	84.3		58.6	
CC#CCn1c(=O)c(C#N)nn(-c2ccc(C)c(C)c2)c1=O	85.5	71 (≈ 20.9 µg/mL)		
Cc1ccc(-n2nc(C(=O)N3CCCNCC3)c(=O)n(Cc3ccccc3)c2=O)cc1C	53.6			
Cc1ccc(-n2nc(C#N)c(=O)n(Cc3ccccn3)c2=O)cc1C	-4.94			
Cc1ccc(-n2nc(C(=O)N3CCN(C(=O)OC(C)(C)C)CC3)c(=O)n(Cc3cccc(F)c3)c2=O)cc1C	95			
Cc1ccc(-n2nc(C(=O)N3CCCC3)c(=O)n(Cc3ccccc3)c2=O)cc1C	95.4	30 (≈ 12.1 µg/mL)	83.4	0.288

SMILES	inhibition at 20 µM (MDA-MB-231 [1]) [%]	solubility kinetic [2] [µM]	inhibition at 1 µM (MDA-MB-231 [3]) [%]	IC50 (MDA-MB-231 [4]) [µM]
Cc1ccc(-n2nc(C(=O)N3CCC3)c(=O)n(Cc3ccccc3)c2=O)cc1C	98.7		17.7	
Cc1ccc(-n2nc(C#N)c(=O)n(Cc3ccc(F)cc3)c2=O)cc1C	93.6		-1.93	
Cc1ccc(-n2nc(C(=O)NC3CCN(Cc4ccccc4)CC3)c(=O)n(Cc3ccccc3)c2=O)cc1C	74.9			
Cc1ccc(-n2nc(C(=O)N3CCN(c4ccccc4)CC3)c(=O)n(Cc3ccccc3)c2=O)cc1C	79			
Cc1ccc(-n2nc(C(=O)N3CCCCC3)c(=O)n(Cc3cccc(F)c3)c2=O)cc1C	99.6	17 (≈ 7.42 µg/mL)	93.3	0.168
Cc1ccc(-n2nc(C#N)c(=O)n(Cc3cccc(F)c3)c2=O)cc1C	91.1	15 (≈ 5.26 µg/mL)	23.2	
Cc1ccc(-n2nc(C(=O)N3CCN(C(=O)C4CC4)CC3)c(=O)n(Cc3cccc(F)c3)c2=O)cc1C	22.2			
Cc1ccc(-n2nc(C(=O)N3CCC(F)(F)CC3)c(=O)n(Cc3ccccc3)c2=O)cc1C	96.8	36 (≈ 16.4 µg/mL)	61.5	0.484
COc1ccccc1CNC(=O)c1nn(-c2ccc(C)c(C)c2)c(=O)n(Cc2ccccc2)c1=O	17.5	25 (≈ 11.8 µg/mL)		
Cc1ccc(-n2nc(C(=O)N3CCCCCC3)c(=O)n(Cc3ccccc3)c2=O)cc1C	99.7	62 (≈ 26.8 µg/mL)	96	0.0459
CCN1CCN(C(=O)c2nn(-c3ccc(C)c(C)c3)c(=O)n(Cc3ccccc3)c2=O)CC1	93.3			> 1
CCOC(=O)C1CCCN(C(=O)c2nn(-c3ccc(C)c(C)c3)c(=O)n(Cc3cccc(F)c3)c2=O)C1 (centres undefined)	98.4	90 (≈ 45.8 µg/mL)	87.6	0.131
Cc1ccc(-n2nc(C(=O)N(C)C)c(=O)n(Cc3ccccc3)c2=O)cc1C	89.8	56 (≈ 21.2 µg/mL)	64	0.867
Cc1ccc(-n2nc(C(=O)N3C4CCC3CN(C(=O)OC(C)(C)C)C4)c(=O)n(Cc3cccc(F)c3)c2=O)cc1C	14.5	99 (≈ 55.8 µg/mL)		
Cc1ccc(-n2nc(C(=O)N3CCCN(C(=O)OC(C)(C)C)CC3)c(=O)n(Cc3cccc(F)c3)c2=O)cc1C	98.3	41 (≈ 22.6 µg/mL)	71.1	0.611
Cc1ccc(-n2nc(C(=O)N3CCC(F)CC3)c(=O)n(Cc3ccccc3)c2=O)cc1C	99.3	57 (≈ 24.9 µg/mL)	89.5	0.132
Cc1ccc(-n2nc(C(=O)N3CC(N(C)C(=O)OC(C)(C)C)C3)c(=O)n(Cc3cccc(F)c3)c2=O)cc1C	98.5			
Cc1ccc(-n2nc(C(=O)N3CCC[C@H](NC(=O)OC(C)(C)C)C3)c(=O)n(Cc3cccc(F)c3)c2=O)cc1C	98		8.56	
CCOC(=O)N1CCN(C(=O)c2nn(-c3ccc(C)c(C)c3)c(=O)n(Cc3cccc(F)c3)c2=O)CC1	95.5			
Cc1ccc(-n2nc(C(=O)N3CCN(C(=O)N(C)C)CC3)c(=O)n(Cc3cccc(F)c3)c2=O)cc1C	12.8			
Cc1ccc(-n2nc(C(=O)N3CC(NC(=O)OC(C)(C)C)C3)c(=O)n(Cc3cccc(F)c3)c2=O)cc1C	73			
Cc1ccc(-n2nc(C(=O)N3CCCN(C)CC3)c(=O)n(Cc3ccccc3)c2=O)cc1C	97.2			> 1
Cc1ccc(-n2nc(C(=O)N3CC3)c(=O)n(Cc3ccccc3)c2=O)cc1C	72.7	47 (≈ 17.7 µg/mL)		
Cc1ccc(-n2nc(C(=O)NCc3ccccn3)c(=O)n(Cc3ccccc3)c2=O)cc1C	71.2			
Cc1ccc(-n2nc(C(=O)NCCN(C)C)c(=O)n(Cc3ccccc3)c2=O)cc1C	97.7			> 1
